Common to all, as to test: DTP human tumour cell line panel, 48 h
Test [1] has as its system DU-145.
In test [2] the test system is HCT-15.
For test [3], the system named is KM12.
Test [4] has as its system LOX IMVI.
For test [5], the system named is MDA-MB-231.
The subject of test [6] is MDA-MB-435.
In test [7] the test system is MOLT-4.
In test [8] the test system is NCI/ADR-RES.
Test [9] concerns OVCAR-3.
For test [10], the system named is OVCAR-5.
In test [11] the test system is OVCAR-8.
Test [12] concerns SF-268.
For test [13], the system named is SF-295.
Test [14] relates to SK-MEL-2.
The subject of test [15] is SK-MEL-5.
Test [16] has as its system SNB-19.
Test [17] has as its system UACC-62.
For test [18], the system named is CAKI-1.
For test [19], the system named is NCI-H460.
For test [20], the system named is HL-60.

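Protocol summary: plate cells (96-well), add compound at 5 concentrations, incubate 48 h, interpolate endpoints linearly. GI50: concentration for 50% inhibition of growth.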 The source made the active and inactive calls. No stated cut-off is given here; in the data, active = GI50 up to about 1.1 µM and inactive = higher. Some results are limits rather than exact numbers.

Turning to `CC(=O)Oc1cc2oc(=O)cc(C)c2cc1OC(C)=O`, the GI50 (usually the concentration giving 50% growth inhibition) in test [1] was 52.7 µM (inactive); in test [2], 38.5 µM; in test [3], 68.7 µM (inactive); in test [4], 40.2 µM (inactive); in [5], 58.7 µM (inactive); in test [6] it was 48.4 µM (inactive). Moreover, the GI50 in test [7] was 74.8 µM (inactive); in [8], 32.4 µM (inactive); in [9] it was 33.1 µM (inactive); in [10], > 100 µM (inactive); in [11], 32.2 µM (inactive); in test [12] it was 36.6 µM (inactive). Moreover, the GI50 in test [13] was 41.8 µM (inactive); in test [14], > 100 µM (inactive); in test [15], > 100 µM (inactive); in test [16], > 100 µM (inactive); in [17], 58.2 µM (inactive).

As to `COc1cccc2[nH]c(-c3ccccn3)nc12`, the GI50 in [18] was 77.6 µM (inactive); in [1], > 100 µM (inactive); in [2] it was 55.7 µM; in test [3], > 100 µM (inactive); in test [4], > 100 µM (inactive); in test [5], > 100 µM (inactive). The GI50 in [6] was > 100 µM (inactive); in test [19] it was 86.7 µM (inactive); in [8] it was 14.3 µM (inactive); in [9] it was 55.7 µM (inactive); in [10], > 100 µM (inactive); in test [11], > 100 µM (inactive). For the same compound, the GI50 was 72.4 µM (inactive) in test [12]; 52.6 µM (inactive) in [13]; > 100 µM (inactive) in [14]; > 100 µM (inactive) in test [15]; > 100 µM (inactive) in [16]; > 100 µM (inactive) in test [17].

For `CC(=O)n1c(COS(C)(=O)=O)nc2ccccc21`, the GI50 was > 100 µM (inactive) in test [18]; > 100 µM (inactive) in test [1]; greater than 100 µM in test [2]; > 100 µM (inactive) in test [3]; > 100 µM (inactive) in [4]; > 100 µM (inactive) in [5]. The GI50 was > 100 µM (inactive) in test [6]; > 100 µM (inactive) in test [19]; > 100 µM (inactive) in [8]; 58.6 µM (inactive) in [9]; > 100 µM (inactive) in test [10]; > 100 µM (inactive) in test [11]. Moreover, the GI50 was > 100 µM (inactive) in [12]; 54 µM (inactive) in [13]; > 100 µM (inactive) in test [14]; > 100 µM (inactive) in test [15]; > 100 µM (inactive) in test [16]; > 100 µM (inactive) in test [17].

For `O=c1c2c3c(sc2nc2n1N=C(c1ccc(Cl)cc1)CS2)CCCC3`, the GI50 in test [18] was > 100 µM (inactive); in test [1] it was > 100 µM (inactive); in test [2], greater than 100 µM; in test [20], > 100 µM (inactive); in test [3], > 100 µM (inactive); in test [4], > 100 µM (inactive). Besides, the GI50 in test [5], in test [6], in test [7], in test [19], in [8] and in [9] was > 100 µM (inactive) throughout. For the same compound, the GI50 in [10], in test [11], in test [12], in [13], in [15] and in test [17] was > 100 µM (inactive) throughout.

Regarding `O=C1CCCC2=C1CC1=C(CCCC1=O)N2c1ccc(Cl)cc1`, the GI50 in [18] is > 100 µM (inactive); in [1], > 100 µM (inactive); in [2] it was greater than 100 µM; in test [20], 28.1 µM (inactive); in test [3], > 100 µM (inactive); in test [4], > 100 µM (inactive). Further, the GI50 in test [5] was > 100 µM (inactive); in test [6], > 100 µM (inactive); in test [7] it was 94.6 µM (inactive); in test [19], > 100 µM (inactive); in test [8], > 100 µM (inactive); in [9], > 100 µM (inactive). Moreover, the GI50 in test [10] is > 100 µM (inactive); in test [11] it was 97.1 µM (inactive); in [12], > 100 µM (inactive); in test [13], > 100 µM (inactive); in test [15], > 100 µM (inactive); in test [16], > 100 µM (inactive). Moreover, the GI50 in test [17] was > 100 µM (inactive).

Consider `O=[N+]([O-])c1cn[n+]([O-])c2ccccc12`, for which the GI50 in [18] was 2.56 µM (inactive); in test [1], 1.05 µM (active); in test [2], 2.06 µM; in test [20] it was 1.17 µM (inactive); in test [3], 5.36 µM (inactive); in test [4] it was 6.67 µM (inactive). Also, the GI50 in [5] is 13.2 µM (inactive); in [6], 13.8 µM (inactive); in [7], 1.71 µM (inactive); in [19], 4.61 µM (inactive); in [8], 5.14 µM (inactive); in test [9] it was 2.55 µM (inactive). The GI50 is 12.4 µM (inactive) in [10]; 2.18 µM (inactive) in test [11]; 4.59 µM (inactive) in test [12]; 4.75 µM (inactive) in test [13]; 13.2 µM (inactive) in test [15]; 11.5 µM (inactive) in [16].

Regarding `COC1/C=C/C(C)C(O)CC(O)/C=C/C(C)C(C(C)C(OC)C(C)CCC(=O)C(C)C(C/C=C/N(C)C=O)OC)OC(=O)/C=C/C=C(\C)CC(OC)CC2=CC(=O)O[C@@H](C(C)C(OC)C1)[C@H]2O` (stereo partly specified), the GI50 in test [18] is < 0.005 µM (active); in [1] it was 0.0221 µM (active); in [2], less than 0.005 µM; in test [20] it was < 0.005 µM (active); in test [3], < 0.005 µM (active); in [4], < 0.005 µM (active). Besides, the GI50 is < 0.005 µM (active) in [5]; 0.0105 µM (active) in test [6]; 0.0163 µM (active) in [7]; < 0.005 µM (active) in test [19]; 0.00656 µM (active) in test [8]; < 0.005 µM (active) in test [9]. In addition, the GI50 in test [10] is 0.0103 µM (active); in [11] it was < 0.005 µM (active); in test [12] it was 0.0233 µM (active); in test [13], < 0.005 µM (active); in test [15], < 0.005 µM (active); in test [16], 0.0168 µM (active). In test [17], the GI50 is 0.00665 µM (active).

For `O=C(CCCCCCCCC(=O)N1C(=O)CC(=O)N(c2cccc(Cl)c2)C1=S)N1C(=O)CC(=O)N(c2cccc(Cl)c2)C1=S`, the GI50 in test [18] is 20.5 µM (inactive); in test [1] it was 89.7 µM (inactive); in [2] it was 43.5 µM; in test [3], 40.3 µM (inactive); in test [4], 47.1 µM (inactive); in [5], 24.6 µM (inactive). Moreover, the GI50 in test [6] was 59.8 µM (inactive); in [7], 20 µM (inactive); in [19] it was 45.9 µM (inactive); in test [8], 27.2 µM (inactive); in test [9], 25.2 µM (inactive); in [10], 56.6 µM (inactive). Also, the GI50 is 34.9 µM (inactive) in test [11]; 57.4 µM (inactive) in test [12]; 28.1 µM (inactive) in test [13]; 37.7 µM (inactive) in test [14]; 28.7 µM (inactive) in test [15]; 33.7 µM (inactive) in test [16]. Besides, the GI50 in test [17] is 21.9 µM (inactive).

As for `S=C(N/N=C\C=N/NC(=S)N1CCCCCC1)N1CCCCCC1`, the GI50 in [18] was > 26.7 µM (inactive); in test [1] it was 9.31 µM (inactive); in test [2], 8.02 µM; in [3], 18.7 µM (inactive); in [4], 13.5 µM (inactive); in [5], > 31.5 µM (inactive). In addition, the GI50 in test [6] is 42.8 µM (inactive); in [7] it was 7.1 µM (inactive); in test [19], 3.93 µM (inactive); in test [8], 15.6 µM (inactive); in [9], 13.8 µM (inactive); in test [10], > 100 µM (inactive). In addition, the GI50 in test [11] is 4.65 µM (inactive); in test [12], 10.5 µM (inactive); in [13], 7.73 µM (inactive); in [14], 17.1 µM (inactive); in test [15] it was 14.2 µM (inactive); in test [16], 34.2 µM (inactive). Further, in test [17], the GI50 was 21.2 µM (inactive).

Regarding `CCC(C)[C@@H](NCc1ccccc1)[C@H](OCc1ccccc1)[C@@H]1COC(C)(C)O1` (stereo partly specified), the GI50 in [1] is 27.4 µM (inactive); in test [2] it was 15.7 µM; in test [3], 18.8 µM (inactive); in test [4], 18 µM (inactive); in [5], 17.1 µM (inactive); in test [6], 32.5 µM (inactive). For the same compound, the GI50 is 25.5 µM (inactive) in test [7]; 21.1 µM (inactive) in test [8]; 28.7 µM (inactive) in [9]; 26.1 µM (inactive) in test [10]; 20.5 µM (inactive) in [11]; 22.8 µM (inactive) in test [12]. Besides, the GI50 in [13] was 21 µM (inactive); in test [14], 18.2 µM (inactive); in test [15], 12.8 µM (inactive); in test [16], 17 µM (inactive); in test [17] it was 20.6 µM (inactive).

Turning to `N=C1CCCC1C(=S)SCCC(N)=O` (stereo unspecified), the GI50 in [18] was > 100 µM (inactive); in test [1] it was > 100 µM (inactive); in test [2], greater than 100 µM; in test [20] it was > 100 µM (inactive); in test [3], > 100 µM (inactive); in test [5], > 100 µM (inactive). The GI50 in test [6], in test [7], in test [19], in [8], in test [9] and in test [10] was > 100 µM (inactive) each time. The GI50 in [11], in test [12], in test [13], in test [14], in test [15] and in [16] was > 100 µM (inactive) in each case. Further, the GI50 in test [17] is > 100 µM (inactive).

Values taken from ChEMBL document CHEMBL1201862, “PubChem BioAssay data set” (2004).
